For orientation: IC50 means the concentration at which inhibition is half-maximal. The solubility is the concentration that dissolves in the medium under given conditions. Lower therefore signals little dissolved substance.

The results in this text go back to US20170129919A1, “CYCLIC DIPEPTIDE-CONTAINING COMPOSITION” (Suntory Holdings Limited, priority 2014, published 2017).

Data set [1] addresses xanthine oxidase (XO). Description: In vitro xanthine oxidase (XO) inhibiting action. The class given is biochemical. Conditions: Table 1; PBS pH 7.5, xanthine substrate, absorbance at 295 nm after 30 minutes; mean±standard error; read-out: IC50 (Activity of Inhibiting XO of Tyr-Containing Cyclic Dipeptides). How it is done: The in vitro xanthine oxidase (XO) inhibiting action was studied on 210 kinds of cyclic dipeptides, linear dipeptides Tyr-Gly and Gly-Tyr, and an amino acid Tyr. […] Thereafter, 20 μL of a 250 μM xanthine solution previously dissolved in the PBS was added thereto, and the absorbance after 30 minutes was measured using a spectrophotometer (Synegy HT, manufactured by Bio Tek). The XO inhibition rate (%) at each concentration was calculated by the following calculation formula, to obtain activities of inhibiting XO (IC50 values).

For the next data set, the system named is hyperuricemic mice. Description: Action of lowering serum uric acid levels for hyperuricemic mice (potassium oxonate model). Conditions: FIG. 2. Format: in vivo, BALBc mice. The protocol: As to the animals used, male 7-week old BALBc mice were purchased from CLEA Japan, Inc., and subjected to an experiment after a one-week period of conditioning. The animals were bred in a breeding room with air-conditioning facilities (temperature: 23.5°±1.0° C., humidity: 55±10 RH %, the number of ventilation: 12 to 15 times/hour, illuminated: from 7:00 to 19:00 each day). During the period of conditioning, the mice were allowed to take a commercially available feed (CE-2, manufactured by CLEA Japan, Inc.) and distilled water ad libitum.
Oxonic acid is a substance that raises a blood uric acid level by inhibiting a urikase, a metabolic enzyme for uric acid. In view of the above, potassium oxonate (PO) was administered, thereby generating hyperuricemic model animals (see, Planta Med 2009; 75:302-306). Studies were made on the following 6 groups:
In all the groups that include PO administration, PO previously suspended in a 0.5% aqueous CMC-Na solution at 250 mg/kg was administered, and Normal Group was administered with a 0.5% aqueous CMC-Na solution, each being administered intraperitoneally. […] After 2 hours from the administration with PO, the blood was collected from the abdominal vena cava under anesthesia. After blood removal, the liver was harvested. The collected blood was allowed to stand at room temperature for 45 minutes, and centrifuged at 8,000 rpm for 10 minutes to recover sera. Here, the sera and the liver were preserved at −80° C. until the measurements were carried out.
The serum uric acid level was measured using 7180 Clinical Analyzer (manufactured by Hitachi Technologies).
The actions of lowering serum uric acid levels of soybean peptide heat-treated products were studied using hyperuricemic model animals, in the same manner as in Test Example 2. Concretely, the animals used were furnished in the same manner as in Test Example 2, and studies were made on the following 5 groups.
For each of the above-mentioned groups, the administration and the blood collection were carried out in the same manner as in Test Example 2 to measure a serum uric acid level. […]
Here, the heat-treated product of the soybean peptide obtained by dissolving a soybean peptide (Hinute AM, manufactured by FUJI OIL, CO., LTD.) in distilled water in a concentration of 200 mg/mL, heating to 132° C. for 3 hours, and lyophilizing the heated mixture was used. The content of the cyclic dipeptide of the soybean peptide heat-treated product was measured according to LC-MS/MS under the following conditions. […]

For data set [2], the target named is T1, xanthine oxidase (XO) (Mus musculus, UniProt Q00519).
T1 construct: the collected supernatant was subjected to an assay for a xanthine oxidase (XO) activity; from tissue; host or cells: liver homogenate supernatant and serum of male BALBc mice (potassium oxonate hyperuricemia model)
Description: XO activity in the liver and sera of hyperuricemic mice. Format: in vivo, BALBc mice. The conditions noted are these: 100 mg/kg orally.
Description: As to the animals used, male 7-week old BALBc mice were purchased from CLEA Japan, Inc., and subjected to an experiment after a one-week period of conditioning. […] During the period of conditioning, the mice were allowed to take a commercially available feed (CE-2, manufactured by CLEA Japan, Inc.) and distilled water ad libitum.
Next, the livers of mice were added to a mixture of an ice-cooled protease inhibitor cocktail and an EDTA-containing tissue protein extraction reagent (T-PER), homogenized, and then centrifuged at 15,000 rpm, at 4° C. for 15 minutes, and the collected supernatant was subjected to an assay for a xanthine oxidase (XO) activity. […]

The next data set in a line: Solubility in water. Format: physicochemical. The conditions noted are these: Table 5. How it is done: Concretely, each compound was added to distilled water (manufactured by Otsuka Pharmaceutical Co., Ltd.) at an ambient temperature (25° C.) so as to have a final concentration of 5 mM, and the mixture was stirred under ultrasonication for 30 minutes to dissolve. […] However, none of the compounds dissolved, so that distilled water was further added thereto so as to have a final concentration of 0.01 mM, and the mixture was stirred under ultrasonication for 30 minutes, but still no compounds dissolved.

Data set [3] is described as follows: Stability of standard product in aqueous solution (LC-MS/MS content measurement). Format: physicochemical.

In brackets after ≈: the same amount, converted by molar mass.

T1 sequence (Q00519 whole entry): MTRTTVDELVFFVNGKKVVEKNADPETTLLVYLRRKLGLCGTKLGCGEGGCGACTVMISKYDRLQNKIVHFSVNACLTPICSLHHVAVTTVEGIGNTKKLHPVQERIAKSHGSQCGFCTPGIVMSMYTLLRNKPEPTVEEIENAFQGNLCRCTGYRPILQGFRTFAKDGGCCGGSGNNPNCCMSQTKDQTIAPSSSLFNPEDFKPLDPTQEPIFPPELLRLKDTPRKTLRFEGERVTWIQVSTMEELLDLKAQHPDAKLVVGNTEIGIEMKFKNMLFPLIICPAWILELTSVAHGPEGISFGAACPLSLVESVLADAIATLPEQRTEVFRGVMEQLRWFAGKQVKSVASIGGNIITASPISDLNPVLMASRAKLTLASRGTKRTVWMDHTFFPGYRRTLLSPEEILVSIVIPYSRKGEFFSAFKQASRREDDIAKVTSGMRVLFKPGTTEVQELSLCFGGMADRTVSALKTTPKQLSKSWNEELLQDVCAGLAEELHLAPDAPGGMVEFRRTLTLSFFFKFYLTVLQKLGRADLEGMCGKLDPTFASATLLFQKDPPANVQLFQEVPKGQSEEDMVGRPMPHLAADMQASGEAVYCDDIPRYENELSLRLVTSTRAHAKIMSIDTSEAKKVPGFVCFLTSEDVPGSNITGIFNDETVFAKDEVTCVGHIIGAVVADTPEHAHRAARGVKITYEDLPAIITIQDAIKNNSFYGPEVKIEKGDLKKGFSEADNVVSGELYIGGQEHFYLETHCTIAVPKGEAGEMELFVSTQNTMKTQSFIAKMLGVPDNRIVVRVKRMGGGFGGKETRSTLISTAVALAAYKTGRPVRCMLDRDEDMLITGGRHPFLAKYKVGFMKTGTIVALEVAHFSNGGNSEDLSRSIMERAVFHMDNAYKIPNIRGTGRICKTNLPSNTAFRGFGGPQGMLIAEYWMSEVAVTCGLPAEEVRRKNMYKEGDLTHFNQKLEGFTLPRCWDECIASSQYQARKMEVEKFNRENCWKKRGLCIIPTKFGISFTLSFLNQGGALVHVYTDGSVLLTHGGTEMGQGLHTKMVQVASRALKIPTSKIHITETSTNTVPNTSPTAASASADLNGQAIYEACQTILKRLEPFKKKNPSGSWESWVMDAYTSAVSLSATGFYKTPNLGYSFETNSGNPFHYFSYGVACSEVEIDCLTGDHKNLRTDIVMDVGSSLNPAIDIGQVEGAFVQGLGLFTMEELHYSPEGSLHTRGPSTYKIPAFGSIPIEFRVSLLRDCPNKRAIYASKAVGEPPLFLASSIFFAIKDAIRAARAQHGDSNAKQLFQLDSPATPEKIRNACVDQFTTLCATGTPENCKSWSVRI

Regarding `O=C1CNC(=O)C(Cc2ccc(O)cc2)N1` (centres unmarked) [Cyclo(Tyr-Gly), cyclotyrosylglycine], at xanthine oxidase (XO) [1], the IC50 was determined as 49 ± 3 µM. Also, the “serum uric acid level vs PO Group” value in the data set with hyperuricemic mice (30 mg/kg orally) and in the data set on hyperuricemic mice (100 mg/kg orally) was “significant difference in effects on the PO Group” in each case. Moreover, in the data set with hyperuricemic mice (10, 30, 100 mg/kg orally, 1 h after PO 250 mg/kg i.p., blood 2 hours after PO), the “action of lowering serum uric acid level, dose dependence” value is listed as “action of lowering a uric acid level in a dose-dependent manner”. Further, on xanthine oxidase (XO) [2] (FIG. 3 lower panel), the “xanthine oxidase activity in the sera” value was “inhibited”. In addition, on xanthine oxidase (XO) [2] (FIG. 3 upper panel), the “xanthine oxidase activity in the liver” value is reported as “inhibited”. For the same molecule, the “solubility in water (in words)” value in the data set “Solubility in water” was “high solubility in water”. Also, the solubility at 30 min in the data set “Solubility in water” (distilled water, 25° C., ultrasonication 30 minutes, visual examination, tested at 5, 1, 0.1, 0.01 mM, insoluble = not dissolved at 0.01 mM) was determined as 1000 µM (≈ 220 µg/mL).

On to `Oc1ncnc2[nH]ncc12` [Allopurinol, reference compound], for which, in the data set on hyperuricemic mice (1 mg/kg orally), the “serum uric acid level vs PO Group” value is listed as “significant difference in effects on the PO Group”.

On to `O=C1NC(Cc2ccc(O)cc2)C(=O)NC1CS` (centres unmarked) [Cyclo(Tyr-Cys)], for which, at xanthine oxidase (XO) [1], the IC50 was found to be 77.2 ± 4.7 µM. Moreover, the “stability of the standard product in an aqueous solution” value in data set [3] was “unstable in an aqueous solution”.
